Measured values reported in US11773078B2, “Furin inhibitors” (Glaxosmithkline Intellectual Property Development Limited, priority 2018, dated 2023).

Assays:
[1] = molecular target: T1, furin (endogenous protease) in U20S cells (Homo sapiens, UniProt P09958); assay: Furin cell-based assay (image-based, Golgi-targeted GFP with BMP10 furin/PCSK cleavage site); settings: 24-hour incubation, read-out: furin golgi cell pXC50 (converted);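 further: Read-out is mean GFP fluorescence of Golgi puncta per cell by high-content imaging, retained when furin inhibited, over an eleven-point 0.00017–10 µM series, four-parameter fit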
T1 construct: the endogenous protease cleaves GFP; endogenous in cells; host or cells: U2OS cells transduced with a BacMam reporter
T1 sequence (P09958 108-794): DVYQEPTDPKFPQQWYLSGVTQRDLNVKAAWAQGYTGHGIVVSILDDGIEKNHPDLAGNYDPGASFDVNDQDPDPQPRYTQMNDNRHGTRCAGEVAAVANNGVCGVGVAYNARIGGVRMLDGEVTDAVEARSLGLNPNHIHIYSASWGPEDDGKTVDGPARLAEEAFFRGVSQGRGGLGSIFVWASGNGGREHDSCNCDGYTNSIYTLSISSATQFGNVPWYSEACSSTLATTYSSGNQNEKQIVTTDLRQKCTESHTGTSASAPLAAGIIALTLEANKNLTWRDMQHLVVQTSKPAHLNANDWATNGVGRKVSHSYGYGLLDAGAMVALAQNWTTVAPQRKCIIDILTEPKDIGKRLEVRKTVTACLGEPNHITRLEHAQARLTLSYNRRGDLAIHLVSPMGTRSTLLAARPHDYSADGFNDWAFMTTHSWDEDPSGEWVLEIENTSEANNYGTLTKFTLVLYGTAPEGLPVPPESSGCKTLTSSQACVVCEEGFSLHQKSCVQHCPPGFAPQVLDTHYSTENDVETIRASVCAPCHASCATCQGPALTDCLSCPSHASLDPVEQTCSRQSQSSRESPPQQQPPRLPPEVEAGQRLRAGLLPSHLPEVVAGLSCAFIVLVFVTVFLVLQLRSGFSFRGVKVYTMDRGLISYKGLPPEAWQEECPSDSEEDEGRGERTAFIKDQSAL

[2] = molecular target: T2, Furin (108-574-Tev-Flag-His) enzyme (Homo sapiens, UniProt P09958); assay: Furin enzyme assay; format: biochemical
T2 construct: Furin (108-574-Tev-Flag-His) enzyme was expressed and purified from CHO cells; TEV cleavage site (C); FLAG (C); His (C); made in house; host or cells: CHO cells
T2 sequence (P09958 108-574): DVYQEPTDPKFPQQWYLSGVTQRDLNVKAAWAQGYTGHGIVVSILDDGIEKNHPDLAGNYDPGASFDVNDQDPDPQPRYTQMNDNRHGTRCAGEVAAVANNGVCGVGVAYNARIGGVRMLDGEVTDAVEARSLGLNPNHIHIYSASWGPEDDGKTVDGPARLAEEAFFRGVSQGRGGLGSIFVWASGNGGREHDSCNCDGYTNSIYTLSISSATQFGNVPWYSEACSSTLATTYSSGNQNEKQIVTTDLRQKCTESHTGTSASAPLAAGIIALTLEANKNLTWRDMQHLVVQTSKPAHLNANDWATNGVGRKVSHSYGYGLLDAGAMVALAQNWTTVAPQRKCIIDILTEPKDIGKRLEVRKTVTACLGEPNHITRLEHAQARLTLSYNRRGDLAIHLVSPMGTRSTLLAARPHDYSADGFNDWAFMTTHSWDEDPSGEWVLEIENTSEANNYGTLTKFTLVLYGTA
Procedure, shortened: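 CHO-expressed, purified furin construct at 40 pM in 100 mM HEPES pH7.5, 1 mM CaCl2, 0.005% Triton X-100. Eleven-point 1:3 series, 0.00017–10 μM final, incubated 2 h at room temperature and read on Envision. pXC50 from four-parameter fit.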

CC(=O)NCC1CCN(Cc2cc(Oc3ccc(N4CCN(CCCS(C)(=O)=O)CC4)nc3)nc(-c3cc(Cl)cc(Cl)c3)c2)CC1 [Example 251, N-((1-((2-(3,5-dichlorophenyl)-6-((6-(4-(3-(methylsulfonyl)propyl)piperazin-1-yl)pyridin-3-yl)oxy)pyridin-4-yl)methyl)piperidin-4-yl)methyl)acetamide]
EC50 [1]: 5.01 nM | IC50 ([2]; read-out: furin enzyme pIC50 (converted)): < 0.158 nM

NS(=O)(=O)CCCN1CCN(c2ccc(Oc3cc(CN4CCC(CC(=O)O)CC4)cc(-c4cc(Cl)cc(Cl)c4)n3)cn2)CC1 [Example 252, 2-(1-((2-(3,5-dichlorophenyl)-6-((6-(4-(3-sulfamoylpropyl)piperazin-1-yl)pyridin-3-yl)oxy)pyridin-4-yl)methyl)piperidin-4-yl)acetic acid]
EC50 [1]: 31.6 nM | furin enzyme pIC50 [2]: 8.5

CC(=O)NCC1CCN(Cc2cc(Oc3cnc(N4CCN(CCCS(N)(=O)=O)CC4)nc3)nc(-c3cc(Cl)cc(Cl)c3)c2)CC1 [Example 253, N-((1-((2-(3,5-dichlorophenyl)-6-((2-(4-(3-sulfamoylpropyl)piperazin-1-yl)pyrimidin-5-yl)oxy)pyridin-4-yl)methyl)piperidin-4-yl)methyl)acetamide]
EC50 [1]: 2.51 nM | furin enzyme pIC50 [2]: 9.7

CNC(=O)NCC1CCN(Cc2cc(Oc3ccc(N4CCN(CCOC)CC4)nc3)nc(-c3cc(Cl)cc(Cl)c3)c2)CC1 [Example 254, 1-((1-((2-(3,5-dichlorophenyl)-6-((6-(4-(2-methoxyethyl)piperazin-1-yl)pyridin-3-yl)oxy)pyridin-4-yl)methyl)piperidin-4-yl)methyl)-3-methylurea]
EC50 [1]: 3.16 nM | furin enzyme pIC50 [2]: 8.7

CNC(=O)NCC1CCN(Cc2cc(Oc3ccc(N4CCN(CCCS(C)(=O)=O)CC4)nc3)nc(-c3cc(Cl)cc(Cl)c3)c2)CC1 [Example 255, 1-((1-((2-(3,5-dichlorophenyl)-6-((6-(4-(3-(methylsulfonyl)propyl)piperazin-1-yl)pyridin-3-yl)oxy)pyridin-4-yl)methyl)piperidin-4-yl)methyl)-3-methylurea]
EC50 [1]: 6.31 nM | furin enzyme pIC50 [2]: 9.5

CNC(=O)NCC1CCN(Cc2cc(Oc3cnc(N4CCN(CCC(=O)O)CC4)nc3)nc(-c3cc(Cl)cc(Cl)c3)c2)CC1 [Example 256, 3-(4-(5-((6-(3,5-dichlorophenyl)-4-((4-((3-methylureido)methyl)piperidin-1-yl)methyl)pyridin-2-yl)oxy)pyrimidin-2-yl)piperazin-1-yl)propanoic acid]
EC50 [1]: 15.8 nM | furin enzyme pIC50 [2]: 9.5

CNC(=O)NCC1CCN(Cc2cc(Oc3cnc(N4CCN(CCCS(C)(=O)=O)CC4)nc3)nc(-c3cc(Cl)cc(Cl)c3)c2)CC1 [Example 257, 1-((1-((2-(3,5-dichlorophenyl)-6-((2-(4-(3-(methylsulfonyl)propyl)piper-1-yl)pyrimidin-5-yl)oxy)pyridin-4-yl)methyl)piperidin-4-yl)methyl)-3-methylurea]
EC50 [1]: 5.01 nM | furin enzyme pIC50 [2]: 10.1

CC(=O)NCC1CCN(Cc2cc(Oc3ccc(N4CCN(CCC(=O)O)CC4)nc3)cc(-c3cc(Cl)cc(Cl)c3)c2)CC1 [Example 258, 3-(4-(5-((5-((4-(acetamidomethyl)piperidin-1-yl)methyl)-3′,5′-dichloro-[1,1′-biphenyl]-3-yl)oxy)pyridin-2-yl)piperazin-1-yl)propanoic acid]
EC50 [1]: 31.6 nM | furin enzyme pIC50 [2]: 9.6

CC(=O)NCC1CCN(Cc2cc(Oc3cnc(N4CCN(CCCS(C)(=O)=O)CC4)nc3)nc(-c3cc(Cl)cc(Cl)c3)c2)CC1 [Example 259, N-((1-((2-(3,5-dichlorophenyl)-6-((2-(4-(3-(methylsulfonyl)propyl)piperazin-1-yl)pyrimidin-5-yl)oxy)pyridin-4-yl)methyl)piperidin-4-yl)methyl)acetamide]
EC50 [1]: 1.58 nM | furin enzyme pIC50 [2]: 9.8

CNC(=O)NCC1CCN(Cc2cc(Oc3cnc(N4CCN(CCC(N)=O)CC4)nc3)nc(-c3cc(Cl)cc(Cl)c3)c2)CC1 [Example 261, 3-(4-(5-((6-(3,5-dichlorophenyl)-4-((4-((3-methylureido)methyl)piperidin-1-yl)methyl)pyridin-2-yl)oxy)pyrimidin-2-yl)piperazin-1-yl)propanamide]
EC50 [1]: 10 nM | furin enzyme pIC50 [2]: 9.2

CNC(=O)NCC1CCN(Cc2cc(Oc3cnc(N4CCN(CCOC)CC4)nc3)nc(-c3cc(Cl)cc(Cl)c3)c2)CC1 [Example 262, 1-((1-((2-(3,5-dichlorophenyl)-6-((2-(4-(2-methoxyethyl)piperazin-1-yl)pyrimidin-5-yl)oxy)pyridin-4-yl)methyl)piperidin-4-yl)methyl)-3-methylurea]
EC50 [1]: 0.316 nM | furin enzyme pIC50 [2]: 9

CS(=O)(=O)CCCN1CCN(c2ccc(Oc3cc(CN4CCC(CC(N)=O)CC4)cc(-c4cc(Cl)cc(Cl)c4)n3)cn2)CC1 [Example 264, 2-(1-((2-(3,5-dichlorophenyl)-6-((6-(4-(3-(methylsulfonyl)propyl)piperazin-1-yl)pyridin-3-yl)oxy)pyridin-4-yl)methyl)piperidin-4-yl)acetamide]
EC50 [1]: 3.98 nM | furin enzyme pIC50 [2]: 8.6

CNC(=O)NCC1(O)CCN(Cc2cc(Oc3cnc(N4CCN(CCC(N)=O)CC4)nc3)nc(-c3cc(Cl)cc(Cl)c3)c2)CC1 [Example 265, 3-(4-(5-((6-(3,5-dichlorophenyl)-4-((4-hydroxy-4-((3-methylureido)methyl)piperidin-1-yl)methyl)pyridin-2-yl)oxy)pyrimidin-2-yl)piperazin-1-yl)propanamide]
EC50 [1]: 7.94 nM | furin enzyme pIC50 [2]: 9.4

CC(=O)NCC1CCN(Cc2cc(Oc3cnc(N4CCN(CCC(=O)O)CC4)c(F)c3)nc(-c3cc(Cl)cc(Cl)c3)c2)CC1 [Example 266, 3-(4-(5-((4-((4-(acetamidomethyl)piperidin-1-yl)methyl)-6-(3,5-dichlorophenyl)pyridin-2-yl)oxy)-3-fluoropyridin-2-yl)piperazin-1-yl)propanoic acid]
EC50 [1]: 50.1 nM | furin enzyme pIC50 [2]: 8.7

CCOC(=O)NCC1CCN(Cc2cc(Oc3cnc(N4CCN(CCC(=O)O)CC4)nc3)nc(-c3cc(Cl)cc(Cl)c3)c2)CC1 [Example 267, 3-(4-(5-((6-(3,5-dichlorophenyl)-4-((4-(((ethoxycarbonyl)amino)methyl)piperidin-1-yl)methyl)pyridin-2-yl)oxy)pyrimidin-2-yl)piperazin-1-yl)propanoic acid]
EC50 [1]: 50.1 nM | furin enzyme pIC50 [2]: 9.9

CCNC(=O)CC1CCN(Cc2cc(Oc3cnc(N4CCN(CCC(=O)O)CC4)nc3)nc(-c3cc(Cl)cc(Cl)c3)c2)CC1 [Example 268, 3-(4-(5-((6-(3,5-dichlorophenyl)-4-((4-(2-(ethylamino)-2-oxoethyl)piperidin-1-yl)methyl)pyridin-2-yl)oxy)pyrimidin-2-yl)piperazin-1-yl)propanoic acid]
EC50 [1]: 63.1 nM | furin enzyme pIC50 [2]: 9.1

CC(CC1CCN(Cc2cc(Oc3cnc(N4CCNCC4)nc3)nc(-c3cc(Cl)cc(Cl)c3)c2)CC1)C(=O)O (stereo not shown) [Example 269, 3-(1-((2-(3,5-dichlorophenyl)-6-((2-(piperazin-1-yl)pyrimidin-5-yl)oxy)pyridin-4-yl)methyl)piperidin-4-yl)-2-methylpropanoic acid]
EC50 [1]: 25.1 nM | furin enzyme pIC50 [2]: 8.5

CNC(=O)NCC1CCN(Cc2cc(Oc3cnc(N4CCN(CCC(=O)O)CC4)c(F)c3)nc(-c3cc(Cl)cc(Cl)c3)c2)CC1 [Example 270, 3-(4-(5-((6-(3,5-dichlorophenyl)-4-((4-((3-methylureido)methyl)piperidin-1-yl)methyl)pyridin-2-yl)oxy)-3-fluoropyridin-2-yl)piperazin-1-yl)propanoic acid]
EC50 [1]: 25.1 nM | furin enzyme pIC50 [2]: 9.5

CS(=O)(=O)CCCN1CCN(c2ccc(Oc3cc(CN4CCC(CCC(=O)O)CC4)cc(-c4cc(Cl)cc(Cl)c4)n3)cn2)CC1 [Example 271, 3-(1-((2-(3,5-dichlorophenyl)-6-((6-(4-(3-(methylsulfonyl)propyl)piperazin-1-yl)pyridin-3-yl)oxy)pyridin-4-yl)methyl)piperidin-4-yl)propanoic acid]
EC50 [1]: 25.1 nM | furin enzyme pIC50 [2]: 8.9

CS(=O)(=O)CCCN1CCN(c2ncc(Oc3cc(CN4CCC(CCC(=O)O)CC4)cc(-c4cc(Cl)cc(Cl)c4)n3)cn2)CC1 [Example 272, 3-(1-((2-(3,5-dichlorophenyl)-6-((2-(4-(3-(methylsulfonyl)propyl)piperazin-1-yl)pyrimidin-5-yl)oxy)pyridin-4-yl)methyl)piperidin-4-yl)propanoic acid]
EC50 [1]: 31.6 nM | furin enzyme pIC50 [2]: 9.8

CC(=O)NCC1CCN(Cc2cc(Oc3cnc(N4CCN(CCC(N)=O)CC4)nc3)nc(-c3cc(F)c(F)c(Cl)c3)c2)CC1 [Example 273, 3-(4-(5-((4-((4-(acetamidomethyl)piperidin-1-yl)methyl)-6-(3-chloro-4,5-difluorophenyl)pyridin-2-yl)oxy)pyrimidin-2-yl)piperazin-1-yl)propanamide]
EC50 [1]: 31.6 nM | furin enzyme pIC50 [2]: 8.2

CNC(=O)NCC1CCN(Cc2cc(Oc3cnc(N4CCN(CCCS(C)(=O)=O)CC4)nc3)nc(-c3cc(F)cc(Cl)c3)c2)CC1 [Example 274, 1-((1-((2-(3-chloro-5-fluorophenyl)-6-((2-(4-(3-(methylsulfonyl)propyl)piperazin-1-yl)pyrimidin-5-yl)oxy)pyridin-4-yl)methyl)piperidin-4-yl)methyl)-3-methylurea]
EC50 [1]: 6.31 nM | furin enzyme pIC50 [2]: 9

COC(=O)NCC1CCN(Cc2cc(Oc3cnc(N4CCNCC4)nc3)nc(-c3cc(F)cc(Cl)c3)c2)CC1 [Example 275, methyl ((1-((2-(3-chloro-5-fluorophenyl)-6-((2-(piperazin-1-yl)pyrimidin-5-yl)oxy)pyridin-4-yl)methyl)piperidin-4-yl)methyl)carbamate]
EC50 [1]: 100 nM | furin enzyme pIC50 [2]: 8.3
